This note sets out measurements from BindingDB's records for doi:10.1021/acs.jmedchem.7b01344 (Metabasis Therapeutics, 2017).

Molecules are shown by their SMILES.

Test [1] addresses Prostaglandin D2 receptor 2 (CRTH2) (Homo sapiens) (UniProt Q9Y5Y4). Put plainly: Binding affinity to DP2 receptor (unknown origin).
For test [2] the target is unchanged. Put plainly: Binding affinity to DP2 receptor (unknown origin) in presence of 10% human serum.

Sequence of Prostaglandin D2 receptor 2 (CRTH2) (Homo sapiens) (Q9Y5Y4 whole entry, looked up): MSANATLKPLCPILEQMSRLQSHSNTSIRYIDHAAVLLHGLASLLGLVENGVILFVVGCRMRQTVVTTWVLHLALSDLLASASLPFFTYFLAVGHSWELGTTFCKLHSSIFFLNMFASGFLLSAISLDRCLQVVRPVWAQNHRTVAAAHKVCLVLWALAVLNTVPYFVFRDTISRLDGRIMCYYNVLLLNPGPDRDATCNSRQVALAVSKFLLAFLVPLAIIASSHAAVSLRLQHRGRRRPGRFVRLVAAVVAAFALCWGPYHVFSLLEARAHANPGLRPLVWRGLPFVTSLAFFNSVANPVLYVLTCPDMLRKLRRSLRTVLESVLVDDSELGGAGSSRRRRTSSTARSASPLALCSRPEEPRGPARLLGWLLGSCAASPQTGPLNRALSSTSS

For the compound `Cc1ccc(Oc2nc3cc(-c4ccc(-c5ccccc5)cc4)c(Cl)cc3[nH]2)cc1C(=O)O`, the figures for the IC50 in test [1] and in test [2] were 1800 nM and more than 86000 nM, respectively.

What is called IC50 is the concentration needed to halve the response being measured.
